Data reported in publication PMC4805251, “Novel Antimicrobial Peptides EeCentrocins 1, 2 and EeStrongylocin 2 from the Edible Sea Urchin Echinus esculentus Have 6-Br-Trp Post-Translational Modifications” (PLoS ONE, 2016).
Read-outs that look alike come from different tables or passages of the source. Ends that are not written are not given here.

Experiments:
Type in all cases: cell-based
[1] = system: Bacillus subtilis (ATCC 23857)
Source text: (§1) Organic phase extract, SPE eluates and HPLC-fractions were screened for antibacterial activity against two strains of Gram-positive and two strains of Gram-negative bacteria; Corynebacterium glutamicum (ATCC 13032), Staphylococcus aureus (ATCC 9144), Pseudomonas aeruginosa #1 (ATCC 27853) and Escherichia coli #1 (ATCC 25922). For extended antimicrobial bioactivity screening, the following bacterial strains were used, three strains of Gram-positive bacteria; S. epidermidis #1 (5179-R1) kindly provided by Holger Rohde, S. epidermidis #2, RP62A (ATCC 35984) and Bacillus subtilis (ATCC 23857) in addition to the Gram-negative P. aeruginosa #2, PA 01 (ATCC 15692, DSM 19880) and E. coli #2, NR 698 (MC4100/ptD4213).
(§2) Cultures stored at -80°C were smeared onto agar plates and cultured for 24 h at 35°C. One colony of each bacterial strain was transferred to 5 ml liquid Müller-Hinton (MH, Difco, Lawrence, KS, USA) medium in a glass tube and left shaking at room temperature overnight at 600 rpm. The cultures of actively growing bacteria (20 μl) were further inoculated in 5 ml MH medium and left shaking for 2 h at room temperature. The antibacterial assays were performed as previously described by. Briefly, the bacterial cultures were diluted with medium to 1.3–1.5 × 10^4 bacteria/ml final concentrations and an aliquot of 50 μl was added to each well in 96-well Nunclon^TM microtiter plates (Nagle Nunc Int., Denmark) preloaded with 50 μl test sample solutions, i.e. extracts, eluates or peptides.
(§3) The test plates were incubated for 24 h at 35°C with optical density (OD595) recorded every hour using an Envision 2103 multilabel reader, controlled by the Wallac Envision manager (PerkinElmer, CT, USA). Antibacterial activity was defined as a sample showing >90% inhibition (as measured by optical density) compared to the negative (growth) controls, consisting of bacteria and water. Oxytetracycline (20 μM) served as a positive (inhibition) control. The minimum inhibitory concentration (MIC) was defined as the lowest concentration of a sample displaying >90% inhibition.
(§4) ACN-phases and SPE eluates were tested with two-fold serial dilutions ranging from 5.0 to 0.005 mg/ml (5.0, 2.5, 1.25, 0.63, 0.31, 0.16, 0.08, 0.04, 0.02, 0.01, 0.005 mg/ml) whereas HPLC-fractions were tested undiluted for antibacterial activity. Pure, native peptides and synthetic peptides (described in section 2.11) were tested for antimicrobial activity in concentrations ranging from 100 to 0.1 μM in two-fold serial dilutions (100, 50, 25, 12.5, 6.25, 3.13, 1.56, 0.78, 0.39, 0.20, 0.10 μM). Antimicrobial assays involving natural peptides (i.e. fractionated natural material) were run only once due to limited quantities, whereas all other assays were run in triplicates.

[2] = system: Corynebacterium glutamicum (ATCC 13032)
Source text: as §1, §2, §3, §4

[3] = system: E. coli #2, NR 698 (MC4100/ptD4213)
Source text: as §1, §2, §3, §4

[4] = system: Escherichia coli #1 (ATCC 25922)
Source text: as §1, §2, §3, §4

[5] = system: P. aeruginosa #2, PA 01 (ATCC 15692, DSM 19880)
Source text: as §1, §2, §3, §4

[6] = system: Pseudomonas aeruginosa #1 (ATCC 27853)
Source text: as §1, §2, §3, §4

[7] = system: S. epidermidis #1 (5179-R1)
Source text: as §1, §2, §3, §4

[8] = system: S. epidermidis #2, RP62A (ATCC 35984)
Source text: as §1, §2, §3, §4

[9] = system: Staphylococcus aureus (ATCC 9144)
Source text: as §1, §2, §3, §4

Aureobasidium pullulans = system: Aureobasidium pullulans
Experimental: (§5) The synthetic peptides (see section 2.11) were also screened for antifungal activity against Candida albicans (ATCC 10231), Saccharomyces cerevisiae, Rhodotorula sp., Aureobasidium pullulans and Cladosporium sp. The antifungal assay was performed as described previously. Briefly, fungal spores were dissolved in potato dextrose broth (Difco, Lawrence, KS, USA) to a concentration of 4 × 10^5 spores/ml. The spores (50 μl) were inoculated on 96-well Nunclon^TM microtiter plates containing the synthetic peptides (50 μl) dissolved in MQ-H2O. […] MIC was defined as the lowest concentration of peptide giving no visible fungal growth. The negative (growth) control contained medium and fungal solution.
as §4

[10] = system: Candida albicans (ATCC 10231)
Experimental: as §5, §4

Cladosporium sp. = system: Cladosporium sp.
Experimental: as §5, §4

Rhodotorula sp. = system: Rhodotorula sp.
Experimental: as §5, §4

Saccharomyces cerevisiae = system: Saccharomyces cerevisiae
Experimental: as §5, §4

[11] = system: Gram-positive and Gram-negative bacteria (tested strains); details: 24 h
Source text: as §1, with “(MC4100/ptD4213). […]” for “(MC4100/ptD4213).”
The test plates were incubated for 24 h at 35°C with optical density (OD595) recorded every hour using an Envision 2103 multilabel reader, controlled by the Wallac Envision manager (PerkinElmer, CT, USA). […]
ACN-phases and SPE eluates were tested with two-fold serial dilutions ranging from 5.0 to 0.005 mg/ml (5.0, 2.5, 1.25, 0.63, 0.31, 0.16, 0.08, 0.04, 0.02, 0.01, 0.005 mg/ml) whereas HPLC-fractions were tested undiluted for antibacterial activity. […] Antimicrobial assays involving natural peptides (i.e. fractionated natural material) were run only once due to limited quantities, whereas all other assays were run in triplicates.

## GWWRRTVDKVRNAGRKVAGFASKACGALGH [EeCentrocin 1 HC]
[1]; MH medium, 24 h at 35°C, OD595, lowest concentration with >90% inhibition, value of Table 2, synthetic peptides in triplicates
  MIC B. subtilis: 1.56 µM
[1]; parallel 1 of three
  MIC raw data B. subtilis: 1.56 µM
[1]; parallel 2 of three
  MIC raw data B. subtilis: 1.56 µM
[1]; parallel 3 of three
  MIC raw data B. subtilis: 0.78 µM
[2]; ATCC 13032, 24 h
  MIC C. glutamicum: 0.39 µM
[2]; parallel 1 of three
  MIC raw data C. glutamicum: 0.39 µM
[2]; parallel 2 of three
  MIC raw data C. glutamicum: 0.39 µM
[2]; parallel 3 of three
  MIC raw data C. glutamicum: 0.39 µM
[3]; MH medium, 24 h at 35°C, OD595, >90% inhibition, value of Table 2, triplicates
  MIC E. coli #2: 1.56 µM
[3]; parallel 1 of three
  MIC raw data E. coli #2: 1.56 µM
[3]; parallel 2 of three
  MIC raw data E. coli #2: 1.56 µM
[3]; parallel 3 of three
  MIC raw data E. coli #2: 1.56 µM
[4]; ATCC 25922, 24 h
  MIC E. coli #1: 0.78 µM
[4]; parallel 1 of three
  MIC raw data E. coli #1: 0.78 µM
[4]; parallel 2 of three
  MIC raw data E. coli #1: 0.78 µM
[4]; parallel 3 of three
  MIC raw data E. coli #1: 0.78 µM
[5]; ATCC 15692, 24 h
  MIC P. aeruginosa #2: 3.13 µM
[5]; parallel 1 of three
  MIC raw data P. aeruginosa #2: 3.13 µM
[5]; parallel 2 of three
  MIC raw data P. aeruginosa #2: 3.13 µM
[5]; parallel 3 of three
  MIC raw data P. aeruginosa #2: 3.13 µM
[6]; MH medium, 24 h at 35°C, OD595, >90% inhibition, value of Table 2, native peptides run once, synthetic in triplicates
  MIC P. aeruginosa #1: 1.56 µM
[6]; parallel 1 of three
  MIC raw data P. aeruginosa #1: 1.56 µM
[6]; parallel 2 of three
  MIC raw data P. aeruginosa #1: 1.56 µM
[6]; parallel 3 of three
  MIC raw data P. aeruginosa #1: 1.56 µM
[7]; #1 (5179-R1, 24 h)
  MIC S. epidermidis #1: 6.25 µM
[7]; parallel 1 of three
  MIC raw data S. epidermidis #1: 6.25 µM
[7]; parallel 2 of three
  MIC raw data S. epidermidis #1: 6.25 µM
[7]; parallel 3 of three
  MIC raw data S. epidermidis #1: 6.25 µM
[8]; ATCC 35984, 24 h
  MIC S. epidermidis #2: 3.13 µM
[8]; parallel 1 of three
  MIC raw data S. epidermidis #2: 3.13 µM
[8]; parallel 2 of three
  MIC raw data S. epidermidis #2: 3.13 µM
[8]; parallel 3 of three
  MIC raw data S. epidermidis #2: 3.13 µM
[9]; ATCC 9144, 24 h
  MIC S. aureus: 3.13 µM
[9]; parallel 1 of three
  MIC raw data S. aureus: 3.13 µM
[9]; parallel 2 of three
  MIC raw data S. aureus: 3.13 µM
[9]; parallel 3 of three
  MIC raw data S. aureus: 3.13 µM
Aureobasidium pullulans; 24 h
  MIC A. pullulans: 12.5 µM
Aureobasidium pullulans; parallel 1 of three
  MIC raw data A. pullulans: 12.5 µM
Aureobasidium pullulans; parallel 2 of three
  MIC raw data A. pullulans: 12.5 µM
Aureobasidium pullulans; parallel 3 of three
  MIC raw data A. pullulans: 12.5 µM
[10]; ATCC 10231, 24 h
  MIC C. albicans: 100 µM
[10]; parallel 1 of three
  MIC raw data C. albicans: 100 µM
[10]; parallel 2 of three
  MIC raw data C. albicans: 100 µM
[10]; parallel 3 of three
  MIC raw data C. albicans: 100 µM
Cladosporium sp.; 24 h
  MIC Cladosporium sp.: >100 µM
Cladosporium sp.; parallel 1 of three
  MIC raw data Cladosporium sp.: >100 µM
Cladosporium sp.; parallel 2 of three
  MIC raw data Cladosporium sp.: >100 µM
Cladosporium sp.; parallel 3 of three
  MIC raw data Cladosporium sp.: >100 µM
Rhodotorula sp.; parallel 1 of three
  MIC raw data Rhodotorula sp.: 12.5 µM
Rhodotorula sp.; parallel 2 of three
  MIC raw data Rhodotorula sp.: 12.5 µM
Rhodotorula sp.; parallel 3 of three
  MIC raw data Rhodotorula sp.: 12.5 µM
Rhodotorula sp.; potato dextrose broth, 24 h at room temperature, visual, no visible fungal growth, value of Table 2, triplicates
  MIC Rhodotorula sp.: 12.5 µM
Saccharomyces cerevisiae; 24 h
  MIC S. cerevisiae: 50 µM
Saccharomyces cerevisiae; parallel 1 of three
  MIC raw data S. cerevisiae: 50 µM
Saccharomyces cerevisiae; parallel 2 of three
  MIC raw data S. cerevisiae: 50 µM
Saccharomyces cerevisiae; parallel 3 of three
  MIC raw data S. cerevisiae: 50 µM
[11]
  MIC range towards bacteria: 0.39 to 6.25 µM
